How the values were obtained:
Cbl-b [1] = molecular target: T1, Cbl-b (Homo sapiens, UniProt Q13191); experiment: Cbl-b inhibition assay (Cbl-b activity assay, FRET, Biological Example 1; 100 mM NaCl, 60 nM Src kinase); type: biochemical; conditions: upper bound stated in text lists; read-out: IC50 values in the Cbl-b inhibition assay of Biological Example 1
How it was run: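 N-terminally biotinylated Avi-tagged Cbl-b was mixed with Src kinase, UbcH5B covalently conjugated to Bodipy-fluorescein ubiquitin, and streptavidin-terbium. Src phosphorylation lets Cbl-b bind UbcH5B-Ub, giving terbium-fluorescein FRET; inhibition is read as loss of FRET signal.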

T-cell [2] = experiment: IL-2 secretion from T-cells co-stimulated with anti-CD3 and anti-CD28 antibody (Biological Example 2); type: cell-based, human; conditions: Homo sapiens, T-cell, fold change over baseline (anti-CD3/anti-CD28 stimulated T-cells without inhibitor), read-out: IL-2 secretion Anti-CD3/Anti-CD28 stimulation; for fold induction at 0.3 µM: 0.3 μM Cbl-b inhibitor; for fold induction at 1 µM: 1 μM Cbl-b inhibitor
How it was run: (§1)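 No assay protocol given; T-cells stimulated with anti-CD3 alone or anti-CD3 plus anti-CD28, with or without Cbl-b inhibitor. Activation read as IL-2 secretion or CD25 surface staining, expressed as fold over baseline from uninhibited cells […].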

T-cell [3] = experiment: IL-2 secretion from T-cells stimulated with anti-CD3 antibody alone (Biological Example 2); type: cell-based, human; conditions: Homo sapiens, T-cell; 1 μM Cbl-b inhibitor; fold change over baseline (anti-CD3/anti-CD28 stimulated T-cells without inhibitor); read-out: IL-2 secretion Anti-CD3 stimulation
T-cell [4] = experiment: CD25 cell surface staining on T-cells co-stimulated with anti-CD3 and anti-CD28 antibody (Biological Example 2); type: cell-based, human; conditions: Homo sapiens, T-cell, fold change over baseline (anti-CD3/anti-CD28 stimulated T-cells without inhibitor), read-out: CD25 staining Anti-CD3/Anti-CD28 stimulation; for fold induction at 0.3 µM: 0.3 μM Cbl-b inhibitor; for fold induction at 1 µM: 1 μM Cbl-b inhibitor
How it was run: as §1

T-cell [5] = experiment: CD25 cell surface staining on T-cells stimulated with anti-CD3 antibody alone (Biological Example 2); type: cell-based, human; conditions: Homo sapiens, T-cell; 1 μM Cbl-b inhibitor; fold change over baseline (anti-CD3/anti-CD28 stimulated T-cells without inhibitor); read-out: CD25 staining Anti-CD3 stimulation
Cbl-b [6] = molecular target: T1, Cbl-b; experiment: Cbl-b activity assay (Cbl-b inhibition assay), TR-FRET of Cbl-b interaction with UbcH5B-Ub; type: biochemical; conditions: assay buffer with 100 mM NaCl, 60 nM Src kinase; read-out: Cbl-b activity IC50
How it was run: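 TR-FRET readout of Cbl-b binding to Bodipy-fluorescein N-terminally labeled Ub conjugated to UbcH5B C85K, measured with compound present. After compound incubation, 60 nM Src kinase with 1 mM ATP and 5 mM MgCl2 (final) was added for 1.5 h, then a further 1 h incubation; asterisked values used 50 mM NaCl buffer and 30 nM Src.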

T1 sequence (Q13191 36-427): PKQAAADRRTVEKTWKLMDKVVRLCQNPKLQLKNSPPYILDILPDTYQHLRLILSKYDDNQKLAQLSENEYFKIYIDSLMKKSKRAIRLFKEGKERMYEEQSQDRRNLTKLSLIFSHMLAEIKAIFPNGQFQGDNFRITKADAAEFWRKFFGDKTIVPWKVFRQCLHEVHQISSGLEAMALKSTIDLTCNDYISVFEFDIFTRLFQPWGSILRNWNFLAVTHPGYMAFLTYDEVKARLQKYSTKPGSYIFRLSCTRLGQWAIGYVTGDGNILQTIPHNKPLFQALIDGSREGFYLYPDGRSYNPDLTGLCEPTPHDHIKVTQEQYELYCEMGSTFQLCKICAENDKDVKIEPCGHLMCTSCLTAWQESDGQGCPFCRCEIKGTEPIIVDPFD

| Structure (SMILES) | IC50 (Cbl-b [1]) [nM] | fold induction at 0.3 µM (T-cell [2]) | fold induction at 1 µM (T-cell [2]) | fold induction at 1 µM (T-cell [3]) | fold induction at 0.3 µM (T-cell [4]) | fold induction at 1 µM (T-cell [4]) | fold induction at 1 µM (T-cell [5]) | IC50 (Cbl-b [6]) [nM] |
| --- | --- | --- | --- | --- | --- | --- | --- | --- |
| Cn1cnnc1CC1(c2cccc(NC(=O)c3cc(C4CC4)nc4ccnn34)c2)COC1 [Example 604, 5-cyclopropyl-N-(3-(3-((4-methyl-4H-1,2,4-triazol-3-yl)methyl)oxetan-3-yl)phenyl)pyrazolo[1,5-a]pyrimidine-7-carboxamide] | ≤ 100 | 1.01 to 2.5 | 2.51 to 5 | < 0.05 | 1.01 to 1.3 | 1.01 to 1.3 | 0.601 to 0.8 | < 100 |
| Cn1cnnc1[C@@H](F)C1(c2cccc(N3Cc4c(cc(CN5CCCCC5)cc4C(F)(F)F)C3=O)c2)COC1 [Example 674a, (S)-2-(3-(3-(fluoro(4-methyl-4H-1,2,4-triazol-3-yl)methyl)oxetan-3-yl)phenyl)-6-(piperidin-1-ylmethyl)-4-(trifluoromethyl)isoindolin-1-one] | ≤ 100 | > 7.5 | > 7.5 | 0.101 to 0.15 | 1.31 to 1.5 | 1.51 to 1.75 | > 1 | < 100 |
| C[C@@H](c1cc2c(c(C(F)(F)F)c1)CN(c1cccc(C3(Cc4nncn4C)COC3)c1)C2=O)N1CC(F)C1 [Example 668b, (S)-6-(1-(3-fluoroazetidin-1-yl)ethyl)-2-(3-(3-((4-methyl-4H-1,2,4-triazol-3-yl)methyl)oxetan-3-yl)phenyl)-4-(trifluoromethyl)isoindolin-1-one] | ≤ 100 | 5 to 7.5 | > 7.5 | 0.151 to 0.2 | 1.31 to 1.5 | 1.51 to 1.75 | > 1 | < 100 |
| Cc1cc(C(=O)Nc2cccc(C3([C@H](F)c4nncn4C)COC3)c2)nc(C2CC2)n1 [Example 669a, (S)-2-cyclopropyl-N-(3-(3-(fluoro(4-methyl-4H-1,2,4-triazol-3-yl)methyl)oxetan-3-yl)phenyl)-6-methylpyrimidine-4-carboxamide] | ≤ 100 | 2.51 to 5 | 5 to 7.5 | 0.151 to 0.2 | 1.01 to 1.3 | 1.01 to 1.3 | > 1 | < 100 |
| Cn1cnnc1CC1(c2cccc(N3Cc4c(cc(CN5Cc6ccc(F)cc6C5)cc4C(F)(F)F)C3=O)c2)COC1 [Example 655, 6-((5-fluoroisoindolin-2-yl)methyl)-2-(3-(3-((4-methyl-4H-1,2,4-triazol-3-yl)methyl)oxetan-3-yl)phenyl)-4-(trifluoromethyl)isoindolin-1-one] | ≤ 100 | 5 to 7.5 | > 7.5 | > 0.201 | 1.31 to 1.5 | 1.31 to 1.5 | > 1 | < 100 |
| Cn1cnnc1CC1(c2cccc(N3Cc4c(cc(CN5CCCC(F)(F)C5)cc4C(F)(F)F)C3=O)c2)COC1 [Example 693, 6-((3,3-difluoropiperidin-1-yl)methyl)-2-(3-(3-((4-methyl-4H-1,2,4-triazol-3-yl)methyl)oxetan-3-yl)phenyl)-4-(trifluoromethyl)isoindolin-1-one] | ≤ 100 | > 7.5 | > 7.5 | > 0.201 | 1.51 to 1.75 | 1.51 to 1.75 | > 1 | < 100 |
| Cn1cnnc1CC1(c2cccc(N3Cc4c(cc(OC(F)F)cc4C(F)(F)F)C3=O)c2)COC1 [Example 595, 6-(Difluoromethoxy)-2-(3-(3-((4-methyl-4H-1,2,4-triazol-3-yl)methyl)oxetan-3-yl)phenyl)-4-(trifluoromethyl)isoindolin-1-one] | ≤ 100 | 2.51 to 5 | 5 to 7.5 | 0.051 to 0.1 | 1.01 to 1.3 | 1.31 to 1.5 | 0.801 to 1 | < 100 |
